target: HIV-1 pNL4-3 integrase (Human immunodeficiency virus type 1 group M subtype B (isolate NY5) (HIV-1), UniProt P12497); experiment: Determination of enzyme (HIV integrase) inhibitory activity; format: biochemical; settings: calculated from inhibition rate (fluorescence)
Method: The following explains evaluation methods of the HIV integrase inhibitory activity of the compound of the present invention.
A full-length gene sequence (Accession No.: M19921) of HIV-1 pNL4-3 integrase was inserted into restriction enzyme Nde I and Xho I sites of plasmid pET21a(+) (manufactured by Novagen) to construct an integrase expression vector pET21a-IN-Wild type.
Escherichia coli recombinant BL21(DE3) transformed with plasmid pET21a-IN-Wild type obtained in (i) was shake cultured at 30° C. in a liquid medium containing ampicillin. When the culture reached the logarithmic growth phase, isopropyl-β-D-thiogalactopyranoside was added to promote expression of integrase gene. The culture was continued for 5 hr to promote accumulation of the integrase protein. The recombinant E. coli was collected in pellets by centrifugal separation and preserved at −80° C.
This Escherichia coli was suspended in Lysis buffer (50 mM Tris-HCl (pH 7.6), 10 mM MgCl2, 5 mM DTT), and disrupted by repeating treatments of pressurization and depressurization, and insoluble fraction was collected by centrifugation at 4° C., 18,000 rpm for 60 min. This was suspended in Lysis buffer containing a protease inhibitor, […] and 10 mM CHAPS were added, and the mixture was stirred at 4° C. for 30 min. Water-soluble fraction was collected by centrifugation at 4° C., 9,000 rpm for 30 min. The obtained fraction was diluted with a column buffer (50 mM Tris-HCl (pH 7.6), 1 mM DTT, 10% Glycerol, 10 mM CHAPS) to 5-fold, and the mixture was applied to heparin column (HiPrep 16/10 Heparin FF column: manufactured by GE Healthcare Bio-Sciences). Using a column buffer containing 1M NaCl, a protein was eluted with 0-1M NaCl concentration gradient, and an eluted fraction containing an integrase protein was collected. The obtained fraction was diluted 5-fold with a column buffer (50 mM Tris-HCl (pH 7.6), 1 mM DTT, 10% Glycerol, 10 mM CHAPS), and the mixture was applied to cation exchange column (Mono-S column: manufactured by GE Healthcare Bio-Sciences). Using a column buffer containing 1M NaCl, a protein was eluted with 0-1M NaCl concentration gradient, and an eluted fraction containing an integrase protein was collected. The obtained fractions of the integrase protein were collected, and preserved at −80° C.
The following DNA synthesized by FASMAC was dissolved in TE buffer (10 mM Tris-hydrochloric acid (pH 8.0), 1 mM EDTA) and mixed with donor DNA, target DNA, and each complementary strand (+ and − strands) to 1 μM. The mixture was heated at 95° C. for 5 min, 80° C. for 10 min, 70° C. for 10 min, 60° C. for 10 min, 50° C. for 10 min and 40° C. for 10 min and kept at 25° C. to give a double stranded DNA, which was used for the test.
Donor DNA (+strand having biotin attached to the 5′ terminal)
Target DNA (+, − strands both having digoxigenin attached to the 3′ terminal)
The donor DNA was diluted with TE buffer to 20 nM, of which 50 μL was added to each well of streptavidin-coated black plate (manufactured by PIAS Corporation) and allowed to adsorb at 37° C. for 20 min. The plate was washed with phosphate buffer (Dulbecco's PBS, Sanko Junyaku Co., Ltd.) containing 0.1% Tween 20 and phosphate buffer. Then, an enzyme reaction mixture (70 μL), a test substance (10 μL) diluted with the enzyme reaction mixture and 0.75 μM integrase protein (10 μL) were added to each well and the mixture was reacted at 37° C. for 60 min. composition of enzyme reaction mixture: 30 mM MOPS (3-morpholinopropanesulfonic acid), 5 mM magnesium chloride, 3 mM DTT (dithiothreitol), 0.1 mg/mL BSA (bovine serum albumin), 5% glycerol, 10% DMSO (dimethyl sulfoxide), 0.01% Tween 20.
Then, 25 nM target DNA (10 μL) was added, and the mixture was reacted at 37° C. for 20 min and washed with phosphate buffer containing 0.1% Tween 20 to stop the reaction. […]

Row | SMILES | IC50
1 | CCN1C[C@H](COC)n2cc(-c3nnc(Cc4ccc(F)cc4F)s3)c(=O)c(O)c2C1=O [Example 97] | 6.6 nM
2 | COC[C@H]1Cn2cc(-c3nnc(Cc4ccc(F)cc4F)s3)c(=O)c(O)c2C(=O)N1C1CCC1 [Example 98] | 7.5 nM
3 | COC[C@@H]1Cn2cc(-c3nnc(Cc4ccc(F)cc4F)s3)c(=O)c(O)c2C(=O)N1C(C)C [Example 99] | 6.1 nM
4 | CC(C)N1C(=O)c2c(O)c(=O)c(-c3nnc(Cc4ccc(F)cc4F)s3)cn2CC12CCOCC2 [Example 100] | 8.1 nM
5 | CC(C)N1CC(CS(C)(=O)=O)n2cc(-c3ncc(Cc4ccc(F)cc4F)s3)c(=O)c(O)c2C1=O (stereo not shown) [Example 101] | 6.4 nM
6 | CCN1C(=O)c2c(O)c(=O)c(-c3nnc(Cc4ccc(F)cc4F)s3)cn2C[C@H]1COC [Example 102] | 7.1 nM
7 | COCC1(C)CN(C(C)C)C(=O)c2c(O)c(=O)c(-c3ncc(Cc4ccc(F)cc4)s3)cn21 (stereo not shown) [Example 103] | 18 nM
8 | CNC(=O)C1(C)CN(C(C)C)C(=O)c2c(O)c(=O)c(-c3ncc(Cc4ccc(F)cc4)s3)cn21 (stereo not shown) [Example 104] | 15 nM
9 | CCNC(=O)C1(C)CN(C(C)C)C(=O)c2c(O)c(=O)c(-c3ncc(Cc4ccc(F)cc4)s3)cn21 (stereo not shown) [Example 105] | 17 nM
10 | CC(C)NC(=O)C1(C)CN(C(C)C)C(=O)c2c(O)c(=O)c(-c3ncc(Cc4ccc(F)cc4)s3)cn21 (stereo not shown) [Example 106] | 20 nM
11 | CC(C)N1CC(C)(C(=O)N(C)C)n2cc(-c3ncc(Cc4ccc(F)cc4)s3)c(=O)c(O)c2C1=O (stereo not shown) [Example 107] | 19 nM
12 | CC(C)N1CC(C)(C(=O)N2CCCCC2)n2cc(-c3ncc(Cc4ccc(F)cc4)s3)c(=O)c(O)c2C1=O (stereo not shown) [Example 108] | 18 nM
13 | CC(C)N1CC(C)(C(=O)N2CCCC2)n2cc(-c3ncc(Cc4ccc(F)cc4)s3)c(=O)c(O)c2C1=O (stereo not shown) [Example 109] | 21 nM
14 | COCCOCC1(C)CN(C(C)C)C(=O)c2c(O)c(=O)c(-c3ncc(Cc4ccc(F)cc4)s3)cn21 (stereo not shown) [Example 110] | 23 nM
15 | CC(C)N1CC(C)(CO)n2cc(-c3ncc(Cc4ccc(F)cc4)s3)c(=O)c(O)c2C1=O (stereo not shown) [Example 111] | 20 nM
16 | CC(C)N1CC(C)(C(=O)O)n2cc(-c3ncc(Cc4ccc(F)cc4)s3)c(=O)c(O)c2C1=O (stereo not shown) [Example 112] | 19 nM
17 | CCN1C(=O)c2c(O)c(=O)c(-c3nnc(Cc4ccc(F)cc4)s3)cn2C[C@@H]1COC [Example 113] | 13 nM
18 | CCN1C(=O)c2c(O)c(=O)c(-c3nnc(Cc4ccc(F)cc4F)s3)cn2C[C@@H]1COC [Example 114] | 8.1 nM
19 | O=C1c2c(O)c(=O)c(-c3nnc(Cc4ccc(F)cc4)s3)cn2CC(CO)N1C1CC1 (stereo not shown) [Example 115] | 12 nM
20 | COC[C@H]1CN(CC2CC2)C(=O)c2c(O)c(=O)c(-c3nnc(Cc4ccc(F)cc4)s3)cn21 [Example 116] | 9.6 nM
21 | COC[C@H]1CN(CC2CC2)C(=O)c2c(O)c(=O)c(-c3nnc(Cc4ccc(F)cc4F)s3)cn21 [Example 117] | 9.4 nM
22 | COCCOC[C@H]1CN(CC2CC2)C(=O)c2c(O)c(=O)c(-c3nnc(Cc4ccc(F)cc4)s3)cn21 [Example 118] | 13 nM
23 | COCCOC[C@H]1CN(CC2CC2)C(=O)c2c(O)c(=O)c(-c3nnc(Cc4ccc(F)cc4F)s3)cn21 [Example 119] | 11 nM
24 | COCCOC[C@H]1Cn2cc(-c3nnc(Cc4ccc(F)cc4)s3)c(=O)c(O)c2C(=O)N1C(C)C [Example 120] | 15 nM
25 | COCC1(C)CN(C(C)C)C(=O)c2c(O)c(=O)c(-c3ncc(Cc4ccc(F)cc4F)s3)cn21 (stereo not shown) [Example 121] | 16 nM
26 | COCCOCC1(C)CN(C(C)C)C(=O)c2c(O)c(=O)c(-c3ncc(Cc4ccc(F)cc4F)s3)cn21 (stereo not shown) [Example 122] | 19 nM

Row | SMILES | IC50
27 | COCCOC[C@H]1CN(CC(C)(C)C)C(=O)c2c(O)c(=O)c(-c3nnc(Cc4ccc(F)cc4)s3)cn21 [Example 123] | 27 nM
28 | COCCOC[C@H]1CN(CC(C)(C)C)C(=O)c2c(O)c(=O)c(-c3nnc(Cc4ccc(F)cc4F)s3)cn21 [Example 124] | 15 nM
29 | CCN1C[C@H](COCCOC)n2cc(-c3nnc(Cc4ccc(F)cc4F)s3)c(=O)c(O)c2C1=O [Example 125] | 11 nM
30 | COC[C@@H]1Cn2cc(-c3nnc(Cc4ccc(F)cc4F)s3)c(=O)c(O)c2C(=O)N1CC1CC1 [Example 126] | 7.3 nM
31 | CCN1C[C@@H](COCCOC)n2cc(-c3nnc(Cc4ccc(F)cc4F)s3)c(=O)c(O)c2C1=O [Example 127] | 14 nM
32 | CCN1C[C@@H](COCCOC)n2cc(-c3nnc(Cc4ccc(F)cc4)s3)c(=O)c(O)c2C1=O [Example 128] | 19 nM
33 | COCCOC[C@@H]1Cn2cc(-c3nnc(Cc4ccc(F)cc4F)s3)c(=O)c(O)c2C(=O)N1CC(C)(C)C [Example 129] | 12 nM
34 | CCN1C(=O)c2c(O)c(=O)c(-c3nnc(Cc4ccc(F)cc4F)s3)cn2C[C@@H]1COCCOC [Example 130] | 13 nM
35 | COC[C@H]1CN(C(C)(C)C)C(=O)c2c(O)c(=O)c(-c3nnc(Cc4ccc(F)cc4F)s3)cn21 [Example 131] | 13 nM
36 | CC(C)N1C[C@@H](C)n2cc(-c3nnc(Cc4ccc(F)cc4F)s3)c(=O)c(O)c2C1=O [Example 132] | 9.1 nM
37 | CC(C)N1C(=O)c2c(O)c(=O)c(-c3nnc(Cc4ccc(F)cc4F)s3)cn2C[C@H]1CO [Example 133] | 7.4 nM
38 | COCCOC[C@H]1CN(C(C)C)C(=O)c2c(O)c(=O)c(-c3nnc(Cc4ccc(F)cc4F)s3)cn21 [Example 134] | 16 nM
39 | CC[C@H](C)N1C[C@H](COC)n2cc(-c3nnc(Cc4ccc(F)cc4F)s3)c(=O)c(O)c2C1=O [Example 135] | 12 nM
40 | COC[C@H]1CN([C@@H](C)C(C)C)C(=O)c2c(O)c(=O)c(-c3nnc(Cc4ccc(F)cc4F)s3)cn21 [Example 136] | 11 nM
41 | CC(=O)NC[C@@H]1Cn2cc(-c3nnc(Cc4ccc(F)cc4F)s3)c(=O)c(O)c2C(=O)N1C(C)C [Example 137] | 8.6 nM
42 | CC(C)N1C(=O)c2c(O)c(=O)c(-c3nnc(Cc4ccc(F)cc4F)s3)cn2C[C@H]1CNC(=O)C(C)(C)C [Example 138] | 11 nM
43 | CC(=O)N(C)CC1(C)CN(C(C)C)C(=O)c2c(O)c(=O)c(-c3ncc(Cc4ccc(F)cc4F)s3)cn21 (stereo not shown) [Example 139] | 12 nM
44 | CC(=O)NC[C@H]1Cn2cc(-c3nnc(Cc4ccc(F)cc4F)s3)c(=O)c(O)c2C(=O)N1C(C)C [Example 140] | 5.8 nM
45 | CCOC[C@H]1CN(C(C)C)C(=O)c2c(O)c(=O)c(-c3ncc(Cc4ccc(F)cc4)s3)cn21 [Example 141] | 8 nM
46 | CCOC[C@H]1CN(C(C)C)C(=O)c2c(O)c(=O)c(-c3nnc(Cc4ccc(F)cc4F)s3)cn21 [Example 142] | 6.4 nM
47 | CCOCCOC[C@H]1CN(C(C)C)C(=O)c2c(O)c(=O)c(-c3nnc(Cc4ccc(F)cc4F)s3)cn21 [Example 143] | 6.9 nM
48 | COC[C@H]1CN(C(C)C)C(=O)c2c(O)c(=O)c(-c3nnc(Cc4ccc(F)c(F)c4)s3)cn21 [Example 144] | 7.7 nM
49 | CCC(C)N1C(=O)c2c(O)c(=O)c(-c3nnc(Cc4ccc(F)cc4F)s3)cn2C[C@H]1COC (stereo partly shown) [Example 145] | 5.6 nM
50 | CCC(C)N1C(=O)c2c(O)c(=O)c(-c3nnc(Cc4ccc(F)cc4F)s3)cn2C[C@H]1COC (stereo partly shown) [Example 146] | 5.9 nM
51 | CC[C@@H](C)N1C[C@H](COC)n2cc(-c3nnc(Cc4ccc(F)cc4F)s3)c(=O)c(O)c2C1=O [Example 147] | 8.3 nM
52 | COC[C@H]1CN([C@H](C)C(C)C)C(=O)c2c(O)c(=O)c(-c3nnc(Cc4ccc(F)cc4F)s3)cn21 [Example 148] | 9.8 nM
